Source: ChEMBL document CHEMBL5052852, “Substituted hydantoinamides as adamts7 antagonists” (2021)

Legend:
[1] = Inhibition of recombinant rat/human ADAMTS12 hybrid using HiLyteFluor-488 DELSSMVLELRGLRT-K(QXL520)-E-NH2 as substrate incubated for 120 mins and measured by FRET assay
[2] = Inhibition of recombinant rat/human ADAMTS7 hybrid using HiLyteFluor-488 DELSSMVLELRGLRT-K(QXL520)-E-NH2 as substrate incubated for 120 mins and measured by FRET assay

Row | Compound | IC50 [1] | IC50 [2]
1 | CCC1(CNC(=O)c2cnn(-c3ccc(F)cc3)n2)NC(=O)NC1=O (racemic) | 13 µM | 200 nM
2 | CCC(C)C1(CNC(=O)c2cnn(-c3ccc(F)cc3)n2)NC(=O)NC1=O (racemic) | 2.2 µM | 10 nM
3 | O=C1NC(=O)C(CNC(=O)c2cnn(-c3ccccc3)n2)(C2CCC2)N1 (racemic) | 14 µM | 55 nM
4 | O=C1NC(=O)C(CNC(=O)c2cnn(-c3ccc(F)cc3)n2)(c2ccccc2)N1 (racemic) | > 50 µM | 69 nM
5 | O=C1NC(=O)C(CNC(=O)c2cnn(-c3ccccc3)n2)(C2CCOCC2)N1 (racemic) | 9.95 µM | 128 nM
6 | Cc1nc(C2(CNC(=O)c3cnn(-c4ccc(F)cc4)n3)NC(=O)NC2=O)c(C)s1 (racemic) | 2.8 µM | 100 nM
7 | CCCCC1(CNC(=O)c2cnn(-c3ccc(F)cc3)n2)NC(=O)NC1=O (racemic) | 8.3 µM | 120 nM
8 | CCCCC1(CNC(=O)c2cnn(-c3ccccc3)n2)NC(=O)NC1=O (racemic) | 15 µM | 89 nM
9 | CC(C)C1(CNC(=O)c2cnn(-c3cc(F)c(F)c(F)c3)n2)NC(=O)NC1=O (racemic) | 6 µM | 52 nM
10 | Cn1ccnc1C1(CNC(=O)c2cnn(-c3ccccc3)n2)NC(=O)NC1=O (racemic) | 0.36 µM | 4 nM
11 | O=C1NC(=O)C(CNC(=O)c2cnn(-c3ccc(F)cc3)n2)(C2CCC2)N1 (racemic) | 35 µM | 98 nM
12 | CC(C)C1(CNC(=O)c2cnn(-c3cccc(C#N)c3)n2)NC(=O)NC1=O (racemic) | 6 µM | 170 nM
13 | Cn1ccnc1C1(CNC(=O)c2cnn(-c3ccc(F)cc3)n2)NC(=O)NC1=O (racemic) | 0.32 µM | 4 nM
14 | O=C1NC(=O)C(CNC(=O)c2cnn(-c3ccc(F)cc3)n2)(C2(Cl)CC2)N1 (racemic) | 3.7 µM | 74 nM
15 | O=C1NC(=O)C(CNC(=O)c2cnn(-c3ccc(F)c(Cl)c3)n2)(c2nccs2)N1 (racemic) | 1.2 µM | 35 nM
16 | CC(C)(C)C1(CNC(=O)c2cnn(-c3ccc(F)cc3)n2)NC(=O)NC1=O (racemic) | 6 µM | 69 nM
17 | CCn1nccc1C1(CNC(=O)c2cnn(-c3ccc(F)cc3)n2)NC(=O)NC1=O (racemic) | 2.8 µM | 14 nM
18 | O=C1NC(=O)C(CNC(=O)c2cnn(-c3ccc(Cl)c(F)c3)n2)(c2nccs2)N1 (racemic) | 1.1 µM | 19 nM
19 | Cc1scnc1C1(CNC(=O)c2cnn(-c3ccc(F)cc3)n2)NC(=O)NC1=O (racemic) | 0.68 µM | 8 nM
20 | O=C1NC(=O)C(CNC(=O)c2cnn(-c3ccc(F)cc3)n2)(c2nccs2)N1 (racemic) | 2.4 µM | 39 nM
21 | O=C1NC(=O)C(CNC(=O)c2cnn(-c3cccc(F)c3)n2)(c2nccs2)N1 (racemic) | 0.6 µM | 12 nM
22 | CC(C)C1(CNC(=O)c2cnn(-c3ccc(F)c(F)c3)n2)NC(=O)NC1=O (racemic) | 2.5 µM | 11 nM
23 | O=C1NC(=O)C(CNC(=O)c2cnn(-c3ccc(F)cc3)n2)(c2ncsc2C(F)(F)F)N1 (racemic) | 6.6 µM | 48 nM

Row | Compound | IC50 [1] | IC50 [2]
24 | CC(C)C1(CNC(=O)c2cnn(-c3ccc(Cl)c(F)c3)n2)NC(=O)NC1=O (racemic) | 2.8 µM | 13 nM
25 | CC(C)C1(CNC(=O)c2cnn(-c3ccc(F)cc3F)n2)NC(=O)NC1=O (racemic) | 20 µM | 98 nM
26 | CC(C)C1(CNC(=O)c2cnn(-c3cccc(F)c3)n2)NC(=O)NC1=O (racemic) | 4.5 µM | 46 nM
27 | O=C1NC(=O)C(CNC(=O)c2cnn(-c3ccc(F)cc3)n2)(CC2CC2)N1 (racemic) | 50 µM | 240 nM
28 | Cn1ccnc1C1(CNC(=O)c2cnn(-c3cc(F)c(F)c(F)c3)n2)NC(=O)NC1=O (racemic) | 0.2 µM | 5 nM
29 | CC1(CNC(=O)c2cnn(-c3ccc(F)cc3)n2)NC(=O)NC1=O (racemic) | 5 µM | 560 nM
30 | O=C1NC(=O)C(CNC(=O)c2cnn(-c3ccccc3)n2)(C2CCCCC2)N1 (racemic) | 50 µM | 145 nM
31 | O=C1NC(=O)C(CNC(=O)c2cnn(-c3ccc(F)cc3)n2)(C2CCCC2)N1 (racemic) | 50 µM | 380 nM
32 | O=C1NC(=O)C(CNC(=O)c2cnn(-c3ccc(F)cc3)n2)(c2ccnn2C(F)F)N1 (racemic) | 2.4 µM | 29 nM
33 | O=C1NC(=O)C(CNC(=O)c2cnn(-c3ccc(F)cc3)n2)(C2CCOCC2)N1 (racemic) | 9.3 µM | 260 nM
34 | O=C1NC(=O)C(CNC(=O)c2cnn(-c3ccc(F)cc3)n2)(c2ccnn2CC(F)(F)F)N1 (racemic) | 3.2 µM | 50 nM
35 | O=C1NC(=O)C(CNC(=O)c2cnn(-c3ccccc3)n2)(C2CCCC2)N1 (racemic) | 50 µM | 191 nM
36 | CC(C)(C)C1(CNC(=O)c2cnn(-c3ccccc3)n2)NC(=O)NC1=O (racemic) | 15 µM | 70 nM
37 | CC(C)C1(CNC(=O)c2cnn(-c3ccc(F)cc3)n2)NC(=O)NC1=O (racemic) | 16 µM | 42 nM
38 | O=C1NC(=O)C(CNC(=O)c2cnn(-c3ccc(F)cc3F)n2)(c2nccs2)N1 (racemic) | 6.6 µM | 87 nM
39 | CCCC1(CNC(=O)c2cnn(-c3ccc(F)cc3)n2)NC(=O)NC1=O (racemic) | 19 µM | 170 nM
40 | O=C1NC(=O)C(CNC(=O)c2cnn(-c3ccc(F)cc3)n2)(c2ncccc2C(F)(F)F)N1 (racemic) | 15 µM | 59 nM
41 | O=C1NC(=O)C(CNC(=O)c2cnn(-c3ccc(F)cc3)n2)(c2ncsc2C2CC2)N1 (racemic) | 0.46 µM | 8 nM
42 | CC(C)(C)C1(CNC(=O)c2cnn(-c3ccccc3)c2)NC(=O)NC1=O (racemic) | 5.6 µM | 550 nM
43 | O=C1NC(=O)C(CNC(=O)c2cnn(-c3ccc(F)cc3)n2)(C2CC(F)(F)C2)N1 (racemic) | > 50 µM | 220 nM
44 | Cc1ncsc1C1(CNC(=O)c2cnn(-c3ccc(F)cc3)n2)NC(=O)NC1=O (racemic) | 2.5 µM | 37 nM
45 | Cn1nccc1C1(CNC(=O)c2cnn(-c3ccc(F)cc3)n2)NC(=O)NC1=O (racemic) | 2.4 µM | 10 nM
46 | CCCC1(CNC(=O)c2cnn(-c3ccccc3)n2)NC(=O)NC1=O (racemic) | 19 µM | 240 nM

Row | Compound | IC50 [1] | IC50 [2]
47 | O=C1NC(=O)C(CNC(=O)c2cnn(-c3ccccc3)n2)(CC2CC2)N1 (racemic) | 25 µM | 670 nM
48 | O=C1NC(=O)C(CNC(=O)c2cnn(-c3ccc(F)cc3)n2)(C2(F)CC2)N1 (racemic) | 7.9 µM | 190 nM
49 | O=C1NC(=O)C(CNC(=O)c2cnn(-c3ccc(F)cc3)n2)(C2CCC2)N1 (single isomer, unassigned) | 4.38 µM | 24 nM
50 | O=C1NC(=O)C(CNC(=O)c2cnn(-c3ccc(F)cc3)n2)(c2ccnn2C(F)F)N1 (single isomer, unassigned; atropisomer) | 1.7 µM | 18 nM
51 | O=C1NC(=O)C(CNC(=O)c2cnn(-c3ccccc3)n2)(C2CCC2)N1 (stereo in doubt) | 11 µM | 78 nM
52 | O=C1NC(=O)C(CNC(=O)c2cnn(-c3ccccc3)n2)(c2ccccn2)N1 (stereo in doubt) | 2.8 µM | 10 nM
53 | CCCCC1(CNC(=O)c2cnn(-c3ccc(F)cc3)n2)NC(=O)NC1=O (stereo in doubt) | 3.1 µM | 48 nM
54 | CCCCC1(CNC(=O)c2cnn(-c3ccccc3)n2)NC(=O)NC1=O (stereo in doubt) | 19 µM | 191 nM
55 | CC(C)C1(CNC(=O)c2cnn(-c3cc(F)c(F)c(F)c3)n2)NC(=O)NC1=O (stereo in doubt) | 3.3 µM | 20 nM
56 | CC(C)C1(CNC(=O)c2cnn(-c3ccccc3)n2)NC(=O)NC1=O (stereo in doubt) | 10 µM | 76 nM
57 | O=C1NC(=O)C(CNC(=O)c2cnn(-c3ccc(F)c(Cl)c3)n2)(c2nccs2)N1 (stereo in doubt) | 0.78 µM | 14 nM
58 | CC(C)(C)C1(CNC(=O)c2cnn(-c3ccc(F)cc3)n2)NC(=O)NC1=O (stereo in doubt) | 2.2 µM | 79 nM
59 | O=C1NC(=O)C(CNC(=O)c2cnn(-c3ccc(Cl)c(F)c3)n2)(c2nccs2)N1 (stereo in doubt) | 0.4 µM | 5 nM
60 | Cc1scnc1C1(CNC(=O)c2cnn(-c3ccc(F)cc3)n2)NC(=O)NC1=O (stereo in doubt) | 0.2 µM | 2 nM
61 | O=C1NC(=O)C(CNC(=O)c2cnn(-c3ccc(F)cc3)n2)(c2nccs2)N1 (stereo in doubt) | 1.4 µM | 15 nM
62 | O=C1NC(=O)C(CNC(=O)c2cnn(-c3ccc(F)cc3)n2)(CC2CC2)N1 (stereo in doubt) | 6.2 µM | 130 nM
63 | O=C1NC(=O)C(CNC(=O)c2cnn(-c3ccc(F)cc3)n2)(C2CCCC2)N1 (stereo in doubt) | 5.9 µM | 33 nM
64 | O=C1NC(=O)C(CNC(=O)c2cnn(-c3ccc(F)cc3)n2)(C2CCOCC2)N1 (stereo in doubt) | 1.5 µM | 37 nM
65 | O=C1NC(=O)C(CNC(=O)c2cnn(-c3ccccc3)n2)(C2CCCC2)N1 (stereo in doubt) | 11 µM | 120 nM
66 | CC(C)(C)C1(CNC(=O)c2cnn(-c3ccccc3)n2)NC(=O)NC1=O (stereo in doubt) | 13.1 µM | 47 nM
67 | CC(C)C1(CNC(=O)c2cnn(-c3ccc(F)cc3)n2)NC(=O)NC1=O (stereo in doubt) | 2.77 µM | 8 nM
68 | O=C1NC(=O)C(CNC(=O)c2cnn(-c3ccc(F)cc3F)n2)(c2nccs2)N1 (stereo in doubt) | 5.5 µM | 78 nM
69 | CCCC1(CNC(=O)c2cnn(-c3ccc(F)cc3)n2)NC(=O)NC1=O (stereo in doubt) | 5.1 µM | 60 nM
